Tested on: OPM2-Luc orthotopic tumors
Experiment: OPM2-Luc multiple myeloma orthotopic model, AMG 176 plus carfilzomib
Type: in vivo
Conditions: carfilzomib 3 mg/kg IV twice weekly
Experimental: On day 0, female NSG mice were injected IV with 1×10^6 OPM2-Luc human OPM2-Luc multiple myeloma tumor cells transfected with the firefly luciferase gene.

CC(C)C[C@H](NC(=O)[C@H](CCc1ccccc1)NC(=O)CN1CCOCC1)C(=O)N[C@@H](Cc1ccccc1)C(=O)N[C@@H](CC(C)C)C(=O)[C@@]1(C)CO1 [carfilzomib]
TGI (tumor burden) (AMG 176 20 mg/kg orally once daily, day 4 until day 20, female NSG mice): 82% | tolerability (NSG mice): Unscheduled deaths
